# Publication PMC6792352, “Limited Chemical Structural Diversity Found to Modulate Thyroid Hormone Receptor in the Tox21 Chemical Library” (Environmental Health Perspectives, 2019)
# Structures can show the parent of a compound that is named as a salt.
# Test: in vitro
# Details: rat, gh3-tre-luc cells, AC50 (uM) modified / 1000
row,SMILES,CC50 at 24 h [µM]
1,"O=C(O)c1cc(I)cc(I)c1I [2,3,5-Triiodobenzoic acid]",> 100
2,NS(=O)(=O)c1ccccc1Cl [2-Chlorobenzenesulfonamide],> 90
3,COc1ccc(C(=O)c2ccccc2)c(O)c1 [2-Hydroxy-4-methoxybenzophenone],> 50
4,COc1nc(C)nc(Cl)c1N=C1NCCN1 [Moxonidine],> 20
5,Clc1ccc(C2(Cn3cncn3)OCCO2)c(Cl)c1 [Azaconazole],> 90
6,CCCOCC(C)O (stereo not shown) [1-Propoxy-2-propanol],> 90
7,CCOCCC(=O)OCC [Ethyl 3-ethoxypropionate],> 100
8,O=C(O)c1cccnc1C(=O)O [Quinolinic acid],> 90
9,CCCCCCCC [Octane],> 90
10,COc1cc(NS(=O)(=O)c2ccc(N)cc2)ncn1 [Sulfamonomethoxine],> 20
11,"CCc1cc(Cc2cc(CC)c(N)c(CC)c2)cc(CC)c1N [4,4'-Methylenebis(2,6-diethylaniline)]",61.9
12,O=C(NC(=O)c1ccccc1Cl)Nc1ccc(OC(F)(F)F)cc1 [Triflumuron],> 90
13,CCCCCCCCCCOS(=O)(=O)O [Sodium decyl sulfate],> 90
14,CCN(C)C(=O)Oc1cccc([C@H](C)N(C)C)c1 [Rivastigmine tartrate],> 50
15,[O-][S+](c1cc(Cl)cc(Cl)c1O)c1cc(Cl)cc(Cl)c1O [Bithionoloxide],46
16,C#CCN(C)CCCOc1ccc(Cl)cc1Cl [Clorgyline hydrochloride],28.1
17,O=C(CC(C(=O)OC1CCCCC1)S(=O)(=O)O)OC1CCCCC1 (stereo not shown) [Dicyclohexyl sodium sulfosuccinate],> 90
18,CC1(C)CNC(=NN=C(/C=C/c2ccc(C(F)(F)F)cc2)/C=C/c2ccc(C(F)(F)F)cc2)NC1 [Hydramethylnon],11.2
19,N=C(N)NCCC[C@H](NC(=O)[C@@H]1CCCN1C(=O)[C@@H]1CSSCCC(=O)N[C@@H](Cc2ccc(O)cc2)C(=O)N[C@@H](Cc2ccccc2)C(=O)N[C@@H](CCC(N)=O)C(=O)N[C@@H](CC(N)=O)C(=O)N1)C(=O)NCC(N)=O [Desmopressin acetate],> 50
20,COc1cc(C(=O)N2CCOCC2)cc(OC)c1OC [Trimetozine],> 50
21,Cc1ccccc1CCO [2-Methylphenethyl alcohol],> 90
22,COc1ccc(CCO)cc1 [4-Methoxybenzeneethanol],> 90
23,CC[C@@]1(c2ccccc2)NC(=O)N(C)C1=O [(S)-Mephenytoin],> 50
24,CC(C)(C)OC(=O)c1cccc(N)c1 [tert-Butyl-3-aminobenzoate],> 90

row,SMILES,CC50 at 24 h [µM]
1,CCNC(=O)[C@@H]1CCCN1C(=O)[C@H](CCCN=C(N)N)NC(=O)[C@H](CC(C)C)NC(=O)[C@@H](Cc1c[nH]c2ccccc12)NC(=O)[C@H](Cc1ccc(O)cc1)NC(=O)[C@H](CO)NC(=O)[C@H](Cc1c[nH]c2ccccc12)NC(=O)[C@H](Cc1cnc[nH]1)NC(=O)[C@@H]1CCC(=O)N1 [Deslorelin acetate],1.89
2,C#C[C@]1(O)CC[C@H]2[C@@H]3CCC4=CC(=O)CC[C@@H]4[C@H]3C(=C)C[C@@]21CC [Etonogestrel],> 50
3,CCC1(C)NC(=O)NC1=O (stereo not shown) [5-Ethyl-5-methylhydantoin],> 90
4,CC(=O)c1ccccn1 [2-Acetylpyridine],> 90
5,Brc1c(Br)c(Br)c(Br)c(Br)c1Br [Hexabromobenzene],> 5
6,NC(=O)Nc1nc2ccccc2[nH]1 [2-Benzimidazolylurea],> 90
7,CCCCN(CCCC)CCCOC(=O)c1ccc(N)cc1 [Butacaine],> 20
8,CC(C)=CC1C(C(=O)OC(C#N)c2cccc(Oc3ccccc3)c2)C1(C)C (stereo not shown) [Cyphenothrin],> 90
9,CCCCC/C=C\C/C=C\C/C=C\CCCCC(=O)O [Gamolenic acid],> 50
10,"O=C(O)c1c(Cl)ccc(Cl)c1Cl [2,3,6-Trichlorobenzoic acid]",> 90
11,CCN(CC)CCNC(=O)COc1ccc(OC)cc1 [Mefexamide hydrochloride],> 50
12,C[C@](N)(Cc1ccc(O)c(O)c1)C(=O)O [Methyldopa sesquihydrate],> 90
13,CCCC(=O)OC(=O)CCC [Butanoic anhydride],> 90
14,CCCCCCOC(=O)CC [Hexyl propanoate],> 90
15,O=C(O)CCCCCCCCCC(=O)O [Undecanedioic acid],> 90
16,C=CCCCCCCCCC=O [Undec-10-enal],> 90
17,CC(C)N=C=NC(C)C [Diisopropylcarbodiimide],> 90
18,O=C(NC1CCN(CCc2c[nH]c3ccccc23)CC1)c1ccccc1 [Indoramin hydrochloride],22.2
19,[N-]=[N+]=CC(=O)OC[C@H](N)C(=O)O [Azaserine],> 50
20,CCn1cc(C(=O)O)c(=O)c2cc(F)c(N3CCNCC3)nc21 [Enoxacin],> 20
21,O=C(O)c1cc(C(=O)O)c(C(=O)O)cc1C(=O)O [Pyromellitic acid],> 90
22,"COc1cc(C[C@H](C)N)c(OC)cc1C [(S)-(+)-2,5-Dimethoxy-4-methylamphetamine hydrochloride]",> 100
23,CC(C)N(C(=O)COc1nnc(C(F)(F)F)s1)c1ccc(F)cc1 [Flufenacet],> 90
24,COc1cc(CCC(C)=O)ccc1O [4-(4-Hydroxy-3-methoxyphenyl)-2-butanone],> 90

row,SMILES,CC50 at 24 h [µM]
1,C=C(C)C(=O)Nc1ccc(Cl)c(Cl)c1 [Chloranocryl],> 90
2,CCCCS(=O)(=O)Cl [Butane-1-sulfonyl chloride],> 90
3,O=C(NC(O)C(Cl)(Cl)Cl)NC(O)C(Cl)(Cl)Cl (stereo not shown) [Dichloralurea],> 50
4,COc1ccc(COC=O)cc1 [4-Methoxybenzyl formate],> 90
5,COc1cc2nc(N3CCN(C(=O)c4ccco4)CC3)nc(N)c2cc1OC [Prazosin],8.15
6,COC(=O)[C@H]1[C@H]2C[C@@H]3c4[nH]c5cc(OC)ccc5c4CCN3C[C@H]2C[C@@H](OC(=O)COc2ccc(OC)cc2)[C@@H]1OC [Mefeserpine],> 50
7,COC(=O)C1=C(C)NC(C)=C(C(=O)O[C@H]2CCN(Cc3ccccc3)C2)[C@H]1c1cccc([N+](=O)[O-])c1 [Barnidipine hydrochloride],16.3
8,CCCCCCCCCCCCCCC[C@H](O)[C@@H](N)CO [Safingol],> 50
9,C=CC(=O)OCCCCCCCC(C)C [Isodecyl acrylate],> 90
10,C[C@]12C=CC(=O)C=C1CC[C@@H]1[C@@H]2[C@@H](O)C[C@@]2(C)[C@H]1CC[C@]2(O)C(=O)COC(=O)CCC(=O)O [Prednisolone 21-hemisuccinate],> 50
11,CC(O)(c1ccc(Cl)cc1)c1ccc(Cl)cc1 [Chlorfenethol],76.2
12,CC(C)(C)C1CCC(O)CC1 (stereo not shown) [4-tert-Butylcyclohexanol],> 90
13,Cc1ncc([N+](=O)[O-])n1CC(O)CCl (stereo not shown) [Ornidazole],> 20
14,C[C@H](CCCC(C)(C)O)[C@H]1CC[C@H]2[C@@H]3CC=C4C[C@@H](O)CC[C@]4(C)[C@H]3CC[C@]12C [25-Hydroxycholesterol],> 50
15,NC(=O)N1c2ccccc2CC(=O)c2ccccc21 [Oxcarbazepine],14.5
16,CC(=O)Oc1ccc2c(c1)CC[C@@H]1[C@@H]2CC[C@]2(C)[C@@H](O)CC[C@@H]12 [Estradiol acetate],22.3
17,"CCCCCCCC/C=C\CCCCCCCC(=O)OCCCC [9-Octadecenoic acid (9Z)-, butyl ester]",> 20
18,FC(F)(F)c1cccc(C2=CCN(CCc3ccc4ccccc4c3)CC2)c1 [Xaliproden hydrochloride],> 50
19,COC(=O)[C@H]1[C@@H](OC(=O)c2ccccc2)C[C@@H]2CC[C@H]1N2C [(-)-Cocaine hydrochloride],> 90
20,COC(=O)c1ccccc1C(=O)OC [Dimethyl phthalate],> 50
21,CC[N+](C)(CC)CCOC(=O)C(O)(c1ccccc1)c1ccccc1 [Benzactyzine methobromide],> 50
22,CCC(=O)OCC(=O)[C@@]1(OC(=O)CC)[C@@H](C)C[C@H]2[C@@H]3CCC4=CC(=O)C=C[C@]4(C)[C@@]3(Cl)[C@@H](O)C[C@@]21C [Beclazone],> 50

# Same assay, conditions: rat, gh3-tre-luc cells, AC50 (uM) modified / 1000, Tox21_110001=Tox21_111859; viability, 1 nM T3 present, 24 h
row,SMILES,CC50 at 24 h [µM]
1,O=C1CCCCC1CN1CCCCC1 (stereo not shown) [Pimeclone],> 50

# Same assay, conditions: rat, gh3-tre-luc cells, AC50 (uM) modified / 1000, Tox21_110001=Tox21_200284; viability, 1 nM T3 present, 24 h
row,SMILES,CC50 at 24 h [µM]
1,ClCCOCOCCCl [Bis(2-chloroethoxy)methane],> 100

# Same assay, conditions: rat, gh3-tre-luc cells, AC50 (uM) modified / 1000, Tox21_110001=Tox21_200355; viability, 1 nM T3 present, 24 h
row,SMILES,CC50 at 24 h [µM]
1,CCBr [Bromoethane],> 90

# Same assay, conditions: rat, gh3-tre-luc cells, AC50 (uM) modified / 1000, Tox21_110001=Tox21_201089; viability, 1 nM T3 present, 24 h
row,SMILES,CC50 at 24 h [µM]
1,ClCc1ccccc1Cl [2-Chlorobenzyl chloride],> 90

# Same assay, conditions: rat, gh3-tre-luc cells, AC50 (uM) modified / 1000, Tox21_110001=Tox21_201525; viability, 1 nM T3 present, 24 h
row,SMILES,CC50 at 24 h [µM]
1,CSSC [Methyl disulfide],> 90

# Same assay, conditions: rat, gh3-tre-luc cells, AC50 (uM) modified / 1000, Tox21_110001=Tox21_202151; viability, 1 nM T3 present, 24 h
row,SMILES,CC50 at 24 h [µM]
1,CCN(N=O)C(N)=O [1-Ethyl-1-nitrosourea],> 90

# Same assay, conditions: rat, gh3-tre-luc cells, AC50 (uM) modified / 1000, Tox21_110001=Tox21_202592; viability, 1 nM T3 present, 24 h
row,SMILES,CC50 at 24 h [µM]
1,Cc1ccc2cc3c(ccc4ccccc43)c3c2c1CC3 [3-Methylcholanthrene],> 50

# Same assay, conditions: rat, gh3-tre-luc cells, AC50 (uM) modified / 1000, Tox21_110001=Tox21_301050; viability, 1 nM T3 present, 24 h
row,SMILES,CC50 at 24 h [µM]
1,C[C@H]1[C@H](c2ccc(Cl)cc2)SC(=O)N1C(=O)NC1CCCCC1 [Hexythiazox],67.8

# Same assay, conditions: rat, gh3-tre-luc cells, AC50 (uM) modified / 1000, Tox21_110001=Tox21_302749; viability, 1 nM T3 present, 24 h
row,SMILES,CC50 at 24 h [µM]
1,CCN(N=O)C(N)=O [1-Ethyl-1-nitrosourea],> 60
